Literature values as cited in US7642235B2, “Macrocyclic peptides active against the hepatitis C virus” (Boehringer Ingelheim International GmbH, priority 2003, dated 2010).

System: hepatitis C virus
Settings: two day clinical trial; Nature (2003) 426, p.186-189

## COc1ccc2c(O[C@@H]3C[C@H]4C(=O)N[C@]5(C(=O)O)C[C@H]5/C=C\CCCCC[C@H](NC(=O)OC5CCCC5)C(=O)N4C3)cc(-c3csc(NC(C)C)n3)nc2c1 [BILN 2061]
  viral loads in patients infected with the hepatitis C virus: effective in rapidly reducing viral loads
